Patent US20050267038A1, “Novel diphenylazetidinones, process for their preparation, medicaments comprising these compounds and their use” (Aventis Pharma Deutschland GmbH, priority 2000, published 2005)

Tested on: not listed separately
Test: Bioabsorption, Caco cell model
Type: in vitro ADME
Conditions: human, Caco-2; Caco cell model; read-out: Apparent partition coefficient Papp (according to Lit. Hilgers)
Description: (§1) The bioabsorption of the compounds of the formula I can be examined using the Caco cell model (A. R. Hilgers et al., Caco-2 cell monolayers as a model for drug transport across the intestinal mucosa, Pharm. Res. 1990, 7, 902).
(§2) Below is a bioabsorption measurement for a reference compound: […]
For `O=C1[C@H](CC[C@H](O)c2ccc(F)cc2)[C@@H](c2ccc(O)cc2)N1c1ccc(F)cc1` [Ezetimibe], the Papp was 4.88 ×10⁻⁶ cm/s.

Tested on: Caco-2 cell monolayers
Test: Bioabsorption, Caco cell model
Type: in vitro ADME
Conditions: estimated from Caco cell model
Description: as §1, §2
For `O=C1[C@H](CC[C@H](O)c2ccc(F)cc2)[C@@H](c2ccc(O)cc2)N1c1ccc(F)cc1` [Ezetimibe], the Estimated human bioabsorption was 100%.

Tested on: cholesterol absorption
Test: Cholesterol absorption test: uptake of 14C-cholesterol by the liver
Type: in vivo, mouse
Conditions: dose at which the uptake of 14C-cholesterol by the liver is halved (50%), based on a control group; test substance given immediately prior to peroral test meal; liver after 24 h
Description: Effect on Cholesterol Absorption +^3H-Taurocholic Acid Excretion Using Fecal Excrement of Mice, Rats or Hamsters
NMRI mice, Wistar rats, or Golden Syrian hamsters (in groups of n=4-6) are kept in metabolic cages, where they are fed with a standard diet (Altromin, Lage (Lippe)). The afternoon prior to the administration of the radioactive tracers (^14C-cholesterol), the feed is removed and the animals are adapted to grates.
Additionally, the animals are labeled s.c. with ^3H-TCA (taurocholic acid) (for example 1 μCi/mouse up to 5 μCi/rat) 24 hours prior to the peroral administration of the test meal (^14C-cholesterol in Intralipid® 20, Pharmacia-Upjohn).
Cholesterol absorption test: 0.25 ml/mouse Intralipid® (Pharmacia-Upjohn) ((spiked with 0.25 μCi of ^14C-cholesterol in 0.1 mg of cholesterol) is administered perorally by gavage.
Test substances are prepared separately in 0.5% methylcellulose (Sigma)/5% Solutol (BASF, Ludwigshafen) or a suitable vehicle.
The administration volume of the test substance is 0.5 ml/mouse. The test substance is administered immediately prior to the test meal (Intralipid labeled with ^14C-cholesterol) (cholesterol absorption test).
The feces are collected over a period of 24 h: fecal elimination of ^14C-cholesterol and ^3H-taurocholic acid (TCA) is determined after 24 hours.
The livers are removed and homogenized, and aliquots are incinerated in an oximate (Model 307, Packard) to determine the amount of ^14C-cholesterol which had been taken up/absorbed.
The amount of ^14C-cholesterol taken up by the liver is based on the administered dose. The ED50 values are interpolated from a dose-effect curve as the dose at which the uptake of ^14C-cholesterol by the liver is halved (50%), based on a control group.
In the case of `O=C(NCc1ccc(C2C(CCC(O)c3ccc(F)cc3)C(=O)N2c2ccc(F)cc2)cc1)C(O)C(O)C(O)C(O)CO` (stereo not drawn) [Example II], the “ED50 (liver)” value is reported as 0.1 mg/mouse.
In the case of `C[N+](C)(C)CCCC(=O)NCc1ccc(C2C(CCC(O)c3ccc(F)cc3)C(=O)N2c2ccc(F)cc2)cc1.O=C([O-])C(F)(F)F` (stereo not drawn) [Example XV, [3-(4-{1-(4-Fluorophenyl)-3-[3-(4-fluorophenyl)-3-hydroxypropyl]-4-oxoazetidin-2-yl}benzylcarbamoyl)propyl]trimethylammonium trifluoroacetate], the “ED50 (liver)” value is reported as 0.01 mg/mouse.
In the case of `COc1ccc(C2C(CCC(O)c3ccc(F)cc3)C(=O)N2c2ccc(CNC(=O)CCCCN(Cc3ccccc3)CC(O)C(O)C(O)C(O)CO)cc2)cc1.O=C(O)C(F)(F)F` (stereo not drawn) [Example XVIII, Benzyl-(4-{4-[3-[3-(4-fluorophenyl)-3-hydroxypropyl]-2-(4-methoxyphenyl)-4-oxoazetidin-1-yl]benzylcarbamoyl}butyl)-(2,3,4,5,6-pentahydroxyhexyl)ammonium trifluoroacetate], the “ED50 (liver)” value is reported as 1.0 mg/mouse.
For `COc1ccc(C2C(CCC(O)c3ccc(F)cc3)C(=O)N2c2ccc(CNC(C)=O)cc2)cc1` (stereo not drawn) [Example XX, N-{4-[3-[3-(4-Fluorophenyl)-3-hydroxypropyl]-2-(4-methoxyphenyl)-4-oxoazetidin-1-yl]benzyl}acetamide], the “ED50 (liver)” value was 0.03 mg/mouse.
In the case of `C[N+](C)(C)CCCCC(NC(=O)OCC1c2ccccc2-c2ccccc21)C(=O)NCc1ccc(C2C(CCC(O)c3ccc(F)cc3)C(=O)N2c2ccc(F)cc2)cc1.[Cl-]` (stereo not drawn) [Example XXI], the “ED50 (liver)” value is reported as 1.0 mg/mouse.
For `CN(CCOCCOCCOc1ccc(C2C(CCC(O)c3ccc(F)cc3)C(=O)N2c2ccc(F)cc2)cc1)CC(O)C(O)C(O)C(O)CO` (stereo not drawn) [Example XXX, 1-(4-Fluorophenyl)-3-[3-(4-fluorophenyl)-3-hydroxypropyl]-4-{4-[2-(2-{2-[methyl-(2,3,4,5,6-pentahydroxyhexyl)amino]ethoxy}ethoxy)ethoxy]phenyl}azetidin-2-one], the “ED50 (liver)” value was 0.1 mg/mouse.
In the case of `COc1ccc(C2C(CCC(O)c3ccc(F)cc3)C(=O)N2c2ccc(CNC(=O)CCCCCCCCCCCNC(=O)C(O)C(O)C(O)C(O)CO)cc2)cc1` (stereo not drawn) [III, N-4-[3-[3-(4-Fluorophenyl)-3-hydroxypropyl]-2-(4-methoxyphenyl)-4-oxoazetidin-1-yl]benzyl-12-(2,3,4,5,6-pentahydroxyhexanoylamino)dodecanamide], the “ED50 (liver)” value is reported as 0.003 mg/mouse.
For `O=C(COCCOCC(=O)NCc1ccc(C2C(CCC(O)c3ccc(F)cc3)C(=O)N2c2ccc(F)cc2)cc1)NCCOCCOCC(=O)C(O)C(O)C(O)C(O)CO` (stereo not drawn) [XIII, N-(4-{1-(4-Fluorophenyl)-3-[3-(4-fluorophenyl)-3-hydroxypropyl]-4-oxoazetidin-2-yl}-benzyl)-2-[2-({2-[2-(3,4,5,6,7-pentahydroxy-2-oxoheptyloxy)ethoxy]-ethylcarbamoyl}-methoxy)ethoxy]acetamide], the “ED50 (liver)” value was 0.3 mg/mouse.
With `C[N+](C)(C)CCCCCOc1ccc(C2C(CCC(O)c3ccc(F)cc3)C(=O)N2c2ccc(F)cc2)cc1.[Br-]` (stereo not drawn) [XXIV, [5-(4-{1-(4-Fluorophenyl)-3-[3-(4-fluorophenyl)-3-hydroxypropyl]-4-oxoazetidin-2-yl}phenoxy)pentyl]trimethylammonium bromide] the “ED50 (liver)” value was 0.3 mg/mouse.
For `CN(CCCCOc1ccc(C2C(CCC(O)c3ccc(F)cc3)C(=O)N2c2ccc(F)cc2)cc1)CC(O)C(O)C(O)C(O)CO` (stereo not drawn) [XXV, 1-(4-Fluorophenyl)-3-[3-(4-fluorophenyl)-3-hydroxypropyl]-4-(4-{4-[methyl-(2,3,4,5,6-pentahydroxyhexyl)amino]butoxy}phenyl)azetidin-2-one], the “ED50 (liver)” value was 0.3 mg/mouse.
